Our source for the Ki values is ChEMBL document CHEMBL1133877, “2-Amino-4,6-diarylpyridines as novel ligands for the estrogen receptor” (Bioorg Med Chem Lett, 2001).

Experiment [1] deals with T1, Estrogen receptor beta (Homo sapiens, UniProt Q92731).
The target in experiment [2] is T2, Estrogen receptor (Homo sapiens, UniProt P03372).
T2 sequence (P03372 whole entry): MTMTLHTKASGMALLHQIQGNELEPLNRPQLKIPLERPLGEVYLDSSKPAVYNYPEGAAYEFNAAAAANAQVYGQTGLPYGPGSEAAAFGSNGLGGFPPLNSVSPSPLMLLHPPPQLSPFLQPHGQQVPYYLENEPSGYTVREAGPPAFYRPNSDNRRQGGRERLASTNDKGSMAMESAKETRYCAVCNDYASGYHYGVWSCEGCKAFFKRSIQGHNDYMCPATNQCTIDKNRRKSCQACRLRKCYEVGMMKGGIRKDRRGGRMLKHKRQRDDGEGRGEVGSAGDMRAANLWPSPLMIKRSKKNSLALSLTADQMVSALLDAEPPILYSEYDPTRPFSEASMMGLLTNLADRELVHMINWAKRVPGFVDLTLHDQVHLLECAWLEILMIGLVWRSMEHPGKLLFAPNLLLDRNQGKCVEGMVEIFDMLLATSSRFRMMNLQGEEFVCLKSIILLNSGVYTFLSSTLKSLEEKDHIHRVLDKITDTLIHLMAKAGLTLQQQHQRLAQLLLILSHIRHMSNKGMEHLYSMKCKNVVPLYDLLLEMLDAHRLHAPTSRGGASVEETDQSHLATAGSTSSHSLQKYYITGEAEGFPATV

In experiment [3] the target is T1, Estrogen receptor beta. As to the kind of experiment: Displacement of [3H]17-beta-estradiol from Estrogen receptor beta of bacterial lysate by scintillation proximity assay (SPA) at 10e-5 M; Inactive. In general terms: In a radioligand displacement assay an active substance lowers the binding of a labelled ligand.
In experiment [4] the target is T2, Estrogen receptor. Description: Displacement of [3H]17-beta-estradiol from Estrogen receptor alpha of bacterial lysate by scintillation proximity assay (SPA) at 10e-5 M; Inactive.

T1 sequence (Q92731 whole entry): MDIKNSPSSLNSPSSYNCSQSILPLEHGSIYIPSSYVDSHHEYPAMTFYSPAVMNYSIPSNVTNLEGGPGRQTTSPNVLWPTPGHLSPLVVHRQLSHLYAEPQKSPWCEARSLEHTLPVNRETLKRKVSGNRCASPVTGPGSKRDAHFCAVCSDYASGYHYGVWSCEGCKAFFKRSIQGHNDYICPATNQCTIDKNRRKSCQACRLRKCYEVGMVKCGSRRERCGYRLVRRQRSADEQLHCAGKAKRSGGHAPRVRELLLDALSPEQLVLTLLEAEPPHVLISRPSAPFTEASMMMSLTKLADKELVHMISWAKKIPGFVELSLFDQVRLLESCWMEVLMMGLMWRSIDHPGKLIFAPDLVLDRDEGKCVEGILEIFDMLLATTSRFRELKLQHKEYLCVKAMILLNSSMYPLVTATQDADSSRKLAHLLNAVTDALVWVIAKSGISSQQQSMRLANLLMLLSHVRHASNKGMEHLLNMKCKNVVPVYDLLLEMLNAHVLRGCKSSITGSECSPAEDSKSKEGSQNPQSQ

Broadly, the Ki is a dissociation constant, usually derived from enzyme kinetics or from competition with a known ligand. A lower Ki goes with a stronger hold on the target. On to `Cc1cc(-c2cc(-c3ccccc3)cc(N(C)Cc3ccccc3)n2)ccc1O`, for which the Ki on Estrogen receptor beta [1] came to 1120 nM; on Estrogen receptor [2] it was 380 nM.
`Cc1cc(-c2cc(-c3ccccc3)cc(N3CCC(Cc4ccccc4)CC3)n2)ccc1O`: the Ki on Estrogen receptor beta [1] came out at 110 nM; at Estrogen receptor [2], 20 nM.
Consider `CCN(Cc1ccncc1)c1cc(-c2ccccc2)cc(-c2ccc(O)c(C)c2)n1`, for which the figures for the Ki at Estrogen receptor beta [1] and at Estrogen receptor [2] were 1000 nM and 830 nM, respectively.
As to `Cc1ccccc1-c1cc(-c2ccc(O)cc2)nc(N(C)CCc2ccccc2)c1`, the figures for the Ki at Estrogen receptor beta [1] and at Estrogen receptor [2] were 1100 nM and 650 nM, respectively.
As to `Cc1cc(-c2cc(-c3ccccc3)cc(N3CCCC3)n2)ccc1O`, the Ki entry on Estrogen receptor beta [3] and on Estrogen receptor [4] was “Not Active” each time.
Take `CCCN(Cc1ccccn1)c1cc(-c2ccccc2)cc(-c2ccc(O)c(C)c2)n1`: the Ki at Estrogen receptor beta [1] amounted to 330 nM; on Estrogen receptor [2], 70 nM.
Consider `CN(CCc1ccccc1)c1cc(-c2ccc(O)cc2)cc(-c2ccc(O)cc2)n1`, for which the Ki on Estrogen receptor beta [1] and at Estrogen receptor [2] was > 3000 nM each time.
Turning to `CCOCCN(CCOCC)c1cc(-c2ccccc2)cc(-c2ccc(O)c(C)c2)n1`, the figures for the inhibition constant Ki at Estrogen receptor beta [1] and at Estrogen receptor [2] were 1170 nM and 2000 nM, respectively.
Consider `Cc1cc(-c2cc(-c3ccccc3)cc(N(CCc3ccccc3)Cc3ccccc3)n2)ccc1O`, for which the inhibitory constant (Ki) on Estrogen receptor beta [1] stood at 250 nM; on Estrogen receptor [2] it was 130 nM.
As for `Cc1cc(-c2cc(-c3ccccc3)cc(N(C)CCN(C)C)n2)ccc1O`, the inhibition constant (Ki) result at Estrogen receptor beta [3] and on Estrogen receptor [4] was “Not Active” in each case.
Consider `Cc1cc(-c2cc(-c3ccccc3)cc(N(C)Cc3cccc4ccccc34)n2)ccc1O`, for which the Ki at Estrogen receptor beta [1] stood at 1410 nM; at Estrogen receptor [2], 450 nM.
Consider `CCCN(Cc1ccccn1)c1cc(-c2ccccc2)cc(-c2ccc(O)cc2)n1`, for which the inhibition constant Ki on Estrogen receptor beta [1] was 710 nM; at Estrogen receptor [2], 180 nM.
For `Cc1cc(-c2cc(-c3ccccc3)cc(N(C)CCc3ccccn3)n2)ccc1O` the same measures were > 3000 nM and 1260 nM.
For `CN(CCc1ccccc1)c1cc(-c2ccccc2)cc(-c2ccc(O)cc2)n1` the same measures were 1050 nM and 490 nM.
For `CCCCN(C)c1cc(-c2ccccc2)cc(-c2ccc(O)c(C)c2)n1`, the results for the Ki at Estrogen receptor beta [1] and on Estrogen receptor [2] were 790 nM and 660 nM, respectively.
Taken in the same sequence, the figures for `Cc1cc(-c2cc(-c3ccccc3)cc(N(C)CC(C)C)n2)ccc1O` were 660 nM and 210 nM.
In the case of `CC(C)CN(C)c1cc(-c2ccccc2)cc(-c2ccc(O)cc2)n1`, the figures for the Ki on Estrogen receptor beta [1] and on Estrogen receptor [2] were 1260 nM and 620 nM, respectively.
Regarding `CCCN(Cc1ccccn1)c1cc(-c2ccccc2)cc(-c2ccc(O)cc2C)n1`, the Ki result at Estrogen receptor beta [3] and on Estrogen receptor [4] was “Not Active” throughout.
Turning to `Cc1cc(-c2cc(-c3ccccc3)cc(N(C)CCc3ccccc3)n2)ccc1O`, the figures for the inhibition constant (Ki) at Estrogen receptor beta [1] and at Estrogen receptor [2] were 680 nM and 160 nM, respectively.
